Measured values from US7074789B2, “Kinase inhibitors” (Amgen Inc., priority 1999, dated 2006).

Assays:
Type in all cases: biochemical
AKT = target: T1, AKT (Homo sapiens, UniProt Q9Y243); test: Kinase inhibition assay (33P transfer), AKT; details: Table 2, kinase inhibition class; read-out: AKT3-1
T1 construct: Kinases are expressed as either kinase domains or full length constructs; made in house
Method in brief: (§1)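 Measured by scintillation: radiolabelled phosphate added by tagged recombinant kinases to poly(Glu,Tyr) 4:1 or poly(Arg,Ser) 3:1 attached to microtiter wells, counted once free label was washed away with 0.5% phosphoric acid.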

ErbB2 = target: T2, ErbB2 (Homo sapiens, UniProt P04626); test: Kinase inhibition assay (33P transfer), ErbB2; details: read-out: ErbB2-2
T2 construct: Kinases are expressed as either kinase domains or full length constructs; made in house
T2 sequence (P04626 23-1255, species assumed): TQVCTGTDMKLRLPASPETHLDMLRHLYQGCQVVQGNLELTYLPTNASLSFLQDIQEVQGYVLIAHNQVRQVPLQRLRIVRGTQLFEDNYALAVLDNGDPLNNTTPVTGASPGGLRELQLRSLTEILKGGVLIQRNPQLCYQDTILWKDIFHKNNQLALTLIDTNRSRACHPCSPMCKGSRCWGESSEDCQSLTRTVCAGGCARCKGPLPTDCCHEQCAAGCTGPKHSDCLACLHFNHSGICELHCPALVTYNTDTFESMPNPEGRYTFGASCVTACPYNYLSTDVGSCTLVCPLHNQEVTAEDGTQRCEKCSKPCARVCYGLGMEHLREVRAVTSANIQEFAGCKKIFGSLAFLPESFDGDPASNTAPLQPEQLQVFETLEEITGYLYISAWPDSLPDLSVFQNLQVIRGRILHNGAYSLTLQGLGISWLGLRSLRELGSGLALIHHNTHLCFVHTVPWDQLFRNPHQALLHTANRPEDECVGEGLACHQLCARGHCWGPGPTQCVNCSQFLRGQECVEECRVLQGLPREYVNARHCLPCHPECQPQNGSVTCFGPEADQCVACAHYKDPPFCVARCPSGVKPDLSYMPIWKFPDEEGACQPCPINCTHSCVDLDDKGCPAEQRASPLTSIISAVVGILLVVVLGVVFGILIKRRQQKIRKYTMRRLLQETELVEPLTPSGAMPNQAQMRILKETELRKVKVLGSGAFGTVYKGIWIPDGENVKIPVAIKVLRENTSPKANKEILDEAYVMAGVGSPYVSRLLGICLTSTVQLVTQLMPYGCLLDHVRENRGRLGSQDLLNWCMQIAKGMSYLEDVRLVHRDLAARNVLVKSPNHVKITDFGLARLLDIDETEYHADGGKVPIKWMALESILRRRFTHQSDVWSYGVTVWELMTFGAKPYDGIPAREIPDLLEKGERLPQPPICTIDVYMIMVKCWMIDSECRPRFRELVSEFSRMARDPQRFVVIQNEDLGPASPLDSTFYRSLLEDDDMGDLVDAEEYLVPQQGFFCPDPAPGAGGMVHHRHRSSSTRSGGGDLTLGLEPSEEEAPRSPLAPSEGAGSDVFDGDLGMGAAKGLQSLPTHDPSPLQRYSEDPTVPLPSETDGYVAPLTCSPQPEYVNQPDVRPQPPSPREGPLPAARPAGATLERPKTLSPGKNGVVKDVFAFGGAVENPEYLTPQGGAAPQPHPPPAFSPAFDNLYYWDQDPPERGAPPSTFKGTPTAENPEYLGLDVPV
Method in brief: (§2)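 Steps: coat wells with poly(Glu,Tyr) 4:1 or poly(Arg,Ser) 3:1; add purified kinase, [33P]ATP and inhibitor; incubate; wash with 0.5% phosphoric acid; add liquid scintillant; count. IC50 corresponds to half-maximal reduction of bound 33P.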

Lck = target: T3, Lck (Homo sapiens, UniProt P06239); test: Kinase inhibition assay (33P transfer), Lck; details: read-out: Lck-1
T3 construct: Kinases are expressed as either kinase domains or full length constructs; made in house
T3 sequence (P06239 whole entry, species assumed, the tested form may be a part): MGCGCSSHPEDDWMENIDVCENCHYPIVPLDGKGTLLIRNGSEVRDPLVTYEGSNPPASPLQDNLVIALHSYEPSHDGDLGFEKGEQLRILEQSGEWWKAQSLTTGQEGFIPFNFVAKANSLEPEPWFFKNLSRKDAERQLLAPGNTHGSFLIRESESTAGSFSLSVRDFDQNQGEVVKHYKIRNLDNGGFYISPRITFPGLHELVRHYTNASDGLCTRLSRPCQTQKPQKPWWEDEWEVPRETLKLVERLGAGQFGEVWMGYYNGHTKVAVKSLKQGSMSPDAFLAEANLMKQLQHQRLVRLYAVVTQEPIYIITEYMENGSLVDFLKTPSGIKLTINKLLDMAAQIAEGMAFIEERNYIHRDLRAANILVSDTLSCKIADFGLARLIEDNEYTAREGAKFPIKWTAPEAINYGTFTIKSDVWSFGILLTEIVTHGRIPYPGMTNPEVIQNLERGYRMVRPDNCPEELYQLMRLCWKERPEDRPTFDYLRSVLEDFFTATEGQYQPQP
Method in brief: as §1

c-Met = target: T4, c-Met (Homo sapiens, UniProt P08581); test: Kinase inhibition assay (33P transfer), c-Met; details: Table 2, kinase inhibition class; read-out: Met-1
T4 construct: Kinases are expressed as either kinase domains or full length constructs; made in house
Method in brief: as §2

PDGFRB = target: T5, PDGFRB (Homo sapiens, UniProt P09619); test: Kinase inhibition assay (33P transfer), PDGFRB; details: read-out: PDGFRB-1
T5 construct: Kinases are expressed as either kinase domains or full length constructs; made in house
T5 sequence (P09619 33-1106, species assumed): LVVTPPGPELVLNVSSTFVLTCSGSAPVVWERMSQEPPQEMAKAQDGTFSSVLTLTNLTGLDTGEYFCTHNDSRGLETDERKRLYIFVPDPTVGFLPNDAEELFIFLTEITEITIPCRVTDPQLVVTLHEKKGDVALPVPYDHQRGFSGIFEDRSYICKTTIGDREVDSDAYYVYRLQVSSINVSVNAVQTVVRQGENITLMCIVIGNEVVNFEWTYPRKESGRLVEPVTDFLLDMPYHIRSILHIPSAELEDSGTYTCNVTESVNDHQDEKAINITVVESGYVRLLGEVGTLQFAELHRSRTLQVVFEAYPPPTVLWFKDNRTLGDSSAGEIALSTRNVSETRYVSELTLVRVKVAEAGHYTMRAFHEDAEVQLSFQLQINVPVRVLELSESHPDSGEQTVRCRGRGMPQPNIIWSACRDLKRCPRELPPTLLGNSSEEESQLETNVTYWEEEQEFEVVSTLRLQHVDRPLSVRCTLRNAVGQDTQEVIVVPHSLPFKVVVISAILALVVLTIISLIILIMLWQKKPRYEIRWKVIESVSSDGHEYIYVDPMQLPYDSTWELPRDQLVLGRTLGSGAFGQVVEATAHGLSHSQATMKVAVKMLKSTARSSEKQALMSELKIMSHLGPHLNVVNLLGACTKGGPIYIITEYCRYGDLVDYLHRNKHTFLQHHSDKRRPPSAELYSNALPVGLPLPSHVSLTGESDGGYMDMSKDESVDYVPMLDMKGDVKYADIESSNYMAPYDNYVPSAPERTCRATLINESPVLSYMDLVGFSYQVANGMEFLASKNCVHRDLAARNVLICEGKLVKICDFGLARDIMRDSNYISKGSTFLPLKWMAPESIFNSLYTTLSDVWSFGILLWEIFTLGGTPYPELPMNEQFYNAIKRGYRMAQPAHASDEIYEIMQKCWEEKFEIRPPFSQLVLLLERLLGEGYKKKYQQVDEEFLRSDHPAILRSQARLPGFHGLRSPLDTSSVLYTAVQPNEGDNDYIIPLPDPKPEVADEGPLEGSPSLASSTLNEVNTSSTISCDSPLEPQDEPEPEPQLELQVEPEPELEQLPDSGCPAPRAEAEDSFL

Kdr = target: T6, Kdr (Homo sapiens, UniProt P35968); test: Kinase inhibition assay (33P transfer), Kdr; details: read-out: KDR-1
T6 construct: Kinases are expressed as either kinase domains or full length constructs; made in house
Method in brief: as §1

IGFR-1 = target: T7, IGFR-1 (Homo sapiens, UniProt P08069); test: Kinase inhibition assay, IGFR-1 (Table 2); details: Table 2, kinase inhibition class
T7 construct: Kinases are expressed as either kinase domains or full length constructs; made in house

Zap-70 = target: T8, Zap-70 (Homo sapiens, UniProt P43403); test: Kinase inhibition assay (33P transfer), Zap-70; details: read-out: Zap-1
T8 construct: Kinases are expressed as either kinase domains or full length constructs; made in house
T8 sequence (P43403 1-619): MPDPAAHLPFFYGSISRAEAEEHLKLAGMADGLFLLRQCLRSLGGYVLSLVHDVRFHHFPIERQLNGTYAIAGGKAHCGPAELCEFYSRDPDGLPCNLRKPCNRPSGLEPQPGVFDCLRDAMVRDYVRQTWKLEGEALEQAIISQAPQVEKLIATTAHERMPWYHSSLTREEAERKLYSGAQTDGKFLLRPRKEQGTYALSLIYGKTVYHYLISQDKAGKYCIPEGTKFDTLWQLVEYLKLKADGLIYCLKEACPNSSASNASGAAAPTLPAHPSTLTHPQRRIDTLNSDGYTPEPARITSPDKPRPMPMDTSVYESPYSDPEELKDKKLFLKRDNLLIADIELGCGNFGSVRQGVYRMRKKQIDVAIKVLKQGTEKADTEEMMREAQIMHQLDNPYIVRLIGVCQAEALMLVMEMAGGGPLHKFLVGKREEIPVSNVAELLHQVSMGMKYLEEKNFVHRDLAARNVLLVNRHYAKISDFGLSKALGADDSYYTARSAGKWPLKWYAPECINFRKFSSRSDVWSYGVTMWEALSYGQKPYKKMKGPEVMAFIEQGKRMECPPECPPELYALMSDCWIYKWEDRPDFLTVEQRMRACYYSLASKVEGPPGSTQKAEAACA
Method in brief: as §1

EGFR = target: T9, EGFR (Homo sapiens, UniProt P00533); test: Kinase inhibition assay (33P transfer), EGFR; details: Table 2, kinase inhibition class; read-out: EGFR-1
T9 construct: Kinases are expressed as either kinase domains or full length constructs; made in house
T9 sequence (P00533 25-1210, species assumed): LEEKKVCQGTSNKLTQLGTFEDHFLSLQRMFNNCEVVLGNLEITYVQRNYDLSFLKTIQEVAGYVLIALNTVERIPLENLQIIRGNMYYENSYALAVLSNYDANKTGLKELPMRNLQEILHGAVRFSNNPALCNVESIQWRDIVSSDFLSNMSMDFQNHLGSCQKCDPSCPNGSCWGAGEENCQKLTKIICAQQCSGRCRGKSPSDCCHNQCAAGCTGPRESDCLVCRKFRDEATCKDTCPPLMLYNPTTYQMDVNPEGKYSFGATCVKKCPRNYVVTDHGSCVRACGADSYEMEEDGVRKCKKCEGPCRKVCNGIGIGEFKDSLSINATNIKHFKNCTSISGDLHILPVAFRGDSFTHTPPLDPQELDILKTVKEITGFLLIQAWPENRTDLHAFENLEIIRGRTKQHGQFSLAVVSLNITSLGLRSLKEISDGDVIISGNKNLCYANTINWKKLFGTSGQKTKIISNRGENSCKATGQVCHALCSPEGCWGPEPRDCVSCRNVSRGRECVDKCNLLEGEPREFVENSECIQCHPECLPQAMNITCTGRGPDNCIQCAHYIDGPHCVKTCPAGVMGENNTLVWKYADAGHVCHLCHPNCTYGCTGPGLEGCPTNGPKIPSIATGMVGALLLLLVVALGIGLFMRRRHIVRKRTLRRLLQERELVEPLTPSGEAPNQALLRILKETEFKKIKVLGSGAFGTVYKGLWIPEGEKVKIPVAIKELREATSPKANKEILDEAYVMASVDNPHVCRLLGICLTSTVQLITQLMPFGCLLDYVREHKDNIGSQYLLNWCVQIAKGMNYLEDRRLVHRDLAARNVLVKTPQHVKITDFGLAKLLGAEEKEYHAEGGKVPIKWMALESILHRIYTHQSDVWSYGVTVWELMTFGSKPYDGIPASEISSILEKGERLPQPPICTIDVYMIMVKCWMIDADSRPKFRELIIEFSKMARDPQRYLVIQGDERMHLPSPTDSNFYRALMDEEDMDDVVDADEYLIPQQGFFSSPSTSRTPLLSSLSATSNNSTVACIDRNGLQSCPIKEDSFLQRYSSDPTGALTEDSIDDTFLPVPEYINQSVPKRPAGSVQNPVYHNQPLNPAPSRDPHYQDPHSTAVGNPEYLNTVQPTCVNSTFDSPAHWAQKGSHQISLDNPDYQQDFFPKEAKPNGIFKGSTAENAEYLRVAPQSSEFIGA
Method in brief: as §2

Itk = target: T10, Itk (Homo sapiens, UniProt Q08881); test: Kinase inhibition assay (33P transfer), Itk; details: read-out: Itk-1
T10 construct: Kinases are expressed as either kinase domains or full length constructs; made in house
T10 sequence (Q08881 1-620): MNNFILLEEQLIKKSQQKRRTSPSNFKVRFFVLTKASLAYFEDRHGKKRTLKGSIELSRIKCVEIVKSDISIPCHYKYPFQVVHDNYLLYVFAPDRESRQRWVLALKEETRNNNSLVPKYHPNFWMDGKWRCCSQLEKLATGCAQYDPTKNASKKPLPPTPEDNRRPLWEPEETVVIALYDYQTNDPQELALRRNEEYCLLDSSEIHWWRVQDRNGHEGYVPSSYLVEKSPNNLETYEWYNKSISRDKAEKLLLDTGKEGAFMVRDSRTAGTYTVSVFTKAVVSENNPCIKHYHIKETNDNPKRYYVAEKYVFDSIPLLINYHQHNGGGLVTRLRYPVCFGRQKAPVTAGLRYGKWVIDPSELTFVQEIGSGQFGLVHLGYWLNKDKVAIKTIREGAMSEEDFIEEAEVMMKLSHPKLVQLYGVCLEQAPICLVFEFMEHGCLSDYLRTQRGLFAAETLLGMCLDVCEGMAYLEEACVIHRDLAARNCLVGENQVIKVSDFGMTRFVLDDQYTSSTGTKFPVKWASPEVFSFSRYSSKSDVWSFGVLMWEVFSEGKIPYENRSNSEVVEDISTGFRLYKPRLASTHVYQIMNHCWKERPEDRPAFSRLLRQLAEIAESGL
Method in brief: as §2

T1 sequence (Q9Y243 whole entry, the tested form may be a part): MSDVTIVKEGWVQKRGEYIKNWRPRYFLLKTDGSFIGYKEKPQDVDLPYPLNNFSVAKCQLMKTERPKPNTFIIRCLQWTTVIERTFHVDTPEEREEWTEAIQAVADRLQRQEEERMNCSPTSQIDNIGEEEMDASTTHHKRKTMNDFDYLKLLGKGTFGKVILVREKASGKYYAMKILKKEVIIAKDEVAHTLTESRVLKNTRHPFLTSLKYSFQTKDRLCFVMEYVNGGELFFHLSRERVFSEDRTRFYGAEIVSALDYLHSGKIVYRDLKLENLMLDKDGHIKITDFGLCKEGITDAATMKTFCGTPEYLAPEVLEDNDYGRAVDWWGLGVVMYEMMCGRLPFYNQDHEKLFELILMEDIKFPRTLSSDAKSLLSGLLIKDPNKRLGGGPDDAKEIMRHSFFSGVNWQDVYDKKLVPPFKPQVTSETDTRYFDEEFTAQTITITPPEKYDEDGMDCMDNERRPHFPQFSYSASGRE

Compound | IC50 (AKT) [µM] | IC50 (ErbB2) [µM] | IC50 (Lck) [µM] | IC50 (c-Met) [µM] | IC50 (PDGFRB) [µM] | IC50 (Kdr) [µM] | IC50 (IGFR-1) [µM] | IC50 (Zap-70) [µM] | IC50 (EGFR) [µM] | IC50 (Itk) [µM]
COc1cc(Nc2ncnc(-n3c(Nc4ccccc4C(C)C)nc4ccccc43)n2)cc(OC)c1OC [Compound 1049] | > 8.8 | > 8.8 | 0.782 to 4.69 | 0.782 to 4.69 | 0.782 to 4.69 | < 0.782 | > 8.8 | > 8.8 | > 8.8 | > 8.8
COc1ccc(Nc2ncnc(N(C)c3cccc(Cl)c3)n2)cc1OC [Compound 621] | > 12.1 | < 1.08 | 1.08 to 6.45 | 1.08 to 6.45 | 1.08 to 6.45 | 1.08 to 6.45 | 6.45 to 9.41 | > 12.1 | < 1.08 | > 12.1
CN(c1cccc(Cl)c1)c1ncnc(-n2c(N)nc3ccccc32)n1 [Compound 664] | 6.82 to 9.95 | 1.14 to 6.82 | 1.14 to 6.82 | 1.14 to 6.82 | 9.95 to 12.8 | 1.14 to 6.82 | 1.14 to 6.82 | 6.82 to 9.95 | 1.14 to 6.82 | 6.82 to 9.95
Cc1ccc2c(c1)CCCN2c1ncnc(NCCCn2ccnc2)n1 [Compound 772] | > 12.9 | > 12.9 | > 12.9 | > 12.9 | 10 to 12.9 | > 12.9 | > 12.9 | > 12.9 | > 12.9 | 10 to 12.9
CCN(CC)c1ccc(Nc2ncnc(N3CCCc4cc(C)ccc43)n2)cc1 [Compound 779] | > 11.6 | > 11.6 | > 11.6 | > 11.6 | > 11.6 | > 11.6 | > 11.6 | > 11.6 | > 11.6 | > 11.6
CN(c1ccccc1)c1ncnc(-n2c(N)nc3ccccc32)n1 [Compound 662] | > 14.2 | 7.56 to 11 | 7.56 to 11 | > 14.2 | > 14.2 | 1.26 to 7.56 | 11 to 14.2 | > 14.2 | 7.56 to 11 | > 14.2
COc1cc(Nc2ncnc(-c3cccnc3Cl)n2)cc(OC)c1OCCN1CCOCC1 [Compound 565] | > 9.52 | > 9.52 | 0.846 to 5.07 | > 9.52 | 0.846 to 5.07 | 5.07 to 7.4 | > 9.52 | > 9.52 | > 9.52 | > 9.52
CCCN(CC1CC1)c1ncnc(Nc2cc(OC)c(OC)c(OC)c2)n1 [Compound 626] | > 12 | > 12 | 1.07 to 6.43 | 1.07 to 6.43 | 1.07 to 6.43 | 1.07 to 6.43 | > 12 | > 12 | 9.37 to 12 | 9.37 to 12
C=CCNc1nc2ccccc2n1-c1ncnc(Nc2cc(OC)c(OC)c(OC)c2)n1 [Compound 574] | > 10.4 | > 10.4 | < 0.923 | > 10.4 | < 0.923 | < 0.923 | 0.923 to 5.54 | > 10.4 | > 10.4 | > 10.4
CN(c1cccc(Cl)c1)c1ncnc(Nc2cccc(CC(=O)O)c2)n1 [Compound 706] | > 12.2 | < 1.08 | > 12.2 | 1.08 to 6.49 | 6.49 to 9.46 | < 1.08 | > 12.2 | > 12.2 | < 1.08 | > 12.2
Cc1ccc2c(c1)CCCN2c1ncnc(NCCN2CCOCC2)n1 [Compound 776] | > 12.7 | > 12.7 | > 12.7 | > 12.7 | > 12.7 | > 12.7 | > 12.7 | > 12.7 | > 12.7 | > 12.7
COC(=O)c1ccc(-c2cc(Nc3ncnc(Nc4cccc(CC(N)=O)c4)n3)[nH]n2)cc1 [Compound 577] | > 10.1 | 7.87 to 10.1 | 0.9 to 5.4 | < 0.9 | 0.9 to 5.4 | 0.9 to 5.4 | < 0.9 | > 10.1 | 7.87 to 10.1 | 0.9 to 5.4
COc1cc(Nc2ncnc(-n3c(Nc4ccc(OC(F)(F)F)cc4)nc4ccccc43)n2)cc(OC)c1OC [Compound 1050] | > 8.13 | 4.34 to 6.32 | > 8.13 | 4.34 to 6.32 | 0.723 to 4.34 | 0.723 to 4.34 | > 8.13 | > 8.13 | 4.34 to 6.32 | > 8.13
COc1ccc([C@H](C)Nc2nc3ccccc3n2-c2ncnc(Nc3cc(OC)c(OC)c(OC)c3)n2)cc1 [Compound 1046] | > 8.53 | > 8.53 | > 8.53 | > 8.53 | > 8.53 | < 0.758 | > 8.53 | > 8.53 | > 8.53 | > 8.53
COc1ccc(Nc2ncnc(NCC(O)c3ccccc3)n2)cc1OC (centres unmarked) [Compound 780] | > 12.2 | > 12.2 | 6.53 to 9.53 | > 12.2 | 9.53 to 12.2 | > 12.2 | > 12.2 | > 12.2 | 9.53 to 12.2 | > 12.2
COc1cc(CNc2ncnc(N(C)c3cccc(Cl)c3)n2)cc(OC)c1OC [Compound 747] | > 10.8 | > 10.8 | > 10.8 | > 10.8 | > 10.8 | > 10.8 | > 10.8 | > 10.8 | 5.77 to 8.42 | > 10.8
CN(c1cccc(Cl)c1)c1ncnc(NCCOCCO)n1 [Compound 746] | > 13.9 | > 13.9 | > 13.9 | > 13.9 | > 13.9 | > 13.9 | > 13.9 | > 13.9 | > 13.9 | > 13.9
Cc1ccc2c(c1)CCCN2c1ncnc(Nc2cccc(-c3cnco3)c2)n1 [Compound 774] | 1.04 to 6.24 | < 1.04 | 1.04 to 6.24 | < 1.04 | < 1.04 | 1.04 to 6.24 | 6.24 to 9.1 | > 11.7 | < 1.04 | 1.04 to 6.24
CC1CCc2ccccc2N1c1ncnc(N2c3ccccc3CCC2C)n1 (centres unmarked) [Compound 622] | > 12.1 | 6.46 to 9.42 | > 12.1 | > 12.1 | 9.42 to 12.1 | > 12.1 | > 12.1 | > 12.1 | 6.46 to 9.42 | > 12.1
O=C(O)Cc1cccc(Nc2ncnc(-n3c(NCc4ccccc4)nc4ccccc43)n2)c1 [Compound 531] | > 9.97 | < 0.886 | 0.886 to 5.32 | 7.75 to 9.97 | < 0.886 | < 0.886 | > 9.97 | > 9.97 | < 0.886 | > 9.97
